Measured values as given in patent US11560366B2, “Bicyclo[1.1.1]pentane inhibitors of dual leucine zipper (DLK) kinase for the treatment of disease” (Board of Regents, The University of Texas System, priority 2019, dated 2023).

Key:
[1] = Mouse pharmacokinetics, single dose; type: in vivo, male C57BL/6 mice
[2] = molecular target: human DLK (Homo sapiens (Human), UniProt Q12852); test: DLK Kd determination (KINOMEscan KdELECT, DiscoveRx); type: binding; details: read-out: Kd
Procedure: The DLK dissociation constants (Kd) have been determined in the KINOMEscan KdELECT Service at DiscoveRx.
A fusion protein of full length of human DLK (amino acids 1-859) and the DNA binding domain of NFkB was expressed in transiently transfected HEK293 cells. From these HEK 293 cells, extracts were prepared in M-PER extraction buffer (Pierce) in the presence of Protease Inhibitor Cocktail Complete (Roche) and Phosphatase Inhibitor Cocktail Set II (Merck) per manufacturers' instructions. The DLK fusion protein was labeled with a chimeric double-stranded DNA tag containing the NFkB binding site (5′-[sequence]-3′, SEQ ID NO:1) fused to an amplicon for qPCR readout, which was added directly to the expression extract (the final concentration of DNA-tag in the binding reaction is 0.1 nM).
The liganded beads were blocked with excess biotin and washed with blocking buffer (SeaBlock (Pierce), 1% BSA, 0.05% Tween 20, 1 mM DTT) to remove unbound ligand and to reduce nonspecific binding.
Extracts were used directly in binding assays without any enzyme purification steps at a >10,000-fold overall stock dilution (final DNA-tagged enzyme concentration <0.1 nM). Extracts were loaded with DNA-tag and diluted into the binding reaction in a two step process. First extracts were diluted 1:100 in 1× binding buffer (PBS/0.05% Tween 20/10 mM DTT/0.1% BSA/2 μg/ml sonicated salmon sperm DNA) containing 10 nM DNA-tag. This dilution was allowed to equilibrate at room temperature for 15 minutes and then subsequently diluted 1:100 in 1× binding buffer. Test compounds were prepared as 111× stocks in 100% DMSO. Kds were determined using an 11-point 3-fold compound dilution series with three DMSO control points. […] The compounds were then diluted directly into the assays such that the final concentration of DMSO was 0.9%. All reactions performed in polypropylene 384-well plates. Each was a final volume of 0.02 mL. Assays were incubated with shaking for 1 hour at room temperature. Then the beads were pelleted and washed with wash buffer (1×PBS, 0.05% Tween 20) to remove displaced kinase and test compound. […] The kinase concentration in the eluates was measured by qPCR. qPCR reactions were assembled by adding 2.5 μL of kinase eluate to 7.5 μL of qPCR master mix containing 0.15 μM amplicon primers and 0.15 μM amplicon probe.
Test compounds were prepared as 111× stocks in 100% DMSO. Kds were determined using an 11-point 3-fold compound dilution series with three DMSO control points. […] The compounds were then diluted directly into the assays such that the final concentration of DMSO was 0.9%. The Kds were determined using a compound top concentration of 30,000 nM. Kd measurements were performed in duplicate.
Binding constants (Kds) were calculated with a standard dose-response curve using the Hill equation:
The Hill Slope was set to −1.

[3] = Metabolic stability in liver microsome preparations, overall comparison; type: in vitro ADME; details: relative to comparator compounds 13 or 14/14b (WO2018207072)
Procedure: (§1) The test compound was incubated with liver microsomes (0.5 mg/mL) from CD-1 mouse, Sprague Dawley rat, Beagle dog, Cynomolgus monkey, and human in the presence of NADPH for 45 minutes at 37° C. The % parent remaining over time was determined by LC-MS/MS, using peak area ratios. Half-life (t1/2) was calculated using the following equation: t1/2=ln2/k, where k is the rate constant of parent decay over time (slope of the plot of log[% parent remaining] versus time).

[4] = Metabolic stability in liver microsomes, monkey; type: in vitro ADME, Cynomolgus monkey; details: 0.5 mg/mL microsomes, NADPH, 45 minutes, 37° C., read-out: Half-life in liver microsomes (t1/2, minutes)
Procedure: as §1

[5] = Metabolic stability in liver microsomes, rat; type: in vitro ADME; details: Sprague Dawley, 0.5 mg/mL microsomes, NADPH, 45 minutes, 37° C., read-out: Half-life in liver microsomes (t1/2, minutes)
Procedure: as §1

[6] = Metabolic stability in liver microsomes, human; type: in vitro ADME; details: 0.5 mg/mL microsomes, NADPH, 45 minutes, 37° C., read-out: Half-life in liver microsomes (t1/2, minutes)
Procedure: as §1

[7] = Metabolic stability in liver microsomes, dog; type: in vitro ADME; details: Beagle, 0.5 mg/mL microsomes, NADPH, 45 minutes, 37° C., read-out: Half-life in liver microsomes (t1/2, minutes)
Procedure: as §1

[8] = Rat pharmacokinetics, single dose; type: in vivo, Wistar Han rats
Procedure: Pharmacokinetics for compounds 13, 1a, and 9b were determined using single dosage of Wistar Han rats using techniques that are well known in the art.

[9] = Metabolic stability in liver microsomes, mouse; type: in vitro ADME, CD-1 mouse; details: CD-1, liver microsomes, 0.5 mg/mL microsomes, NADPH, 45 minutes, 37° C., read-out: Half-life in liver microsomes (t1/2, minutes)
Procedure: as §1

[10] = mouse, in vivo, male C57BL/6 mice, IV dose 0.3 mg/kg (1a, 4b, 13, 14b, 16; IV dose of 8a, 9b not stated)
[11] = mouse, plasma, male C57BL/6 mice, oral dose 10 mg/kg
[12] = relative to comparator compounds 13 or 14b
[13] = rat, in vivo, Wistar Han rats, IV dose 1 mg/kg
[14] = rat, in vivo, Wistar Han rats, oral dose 3 mg/kg
[15] = relative to comparator compound 13

Chain of human DLK (Q12852 whole entry): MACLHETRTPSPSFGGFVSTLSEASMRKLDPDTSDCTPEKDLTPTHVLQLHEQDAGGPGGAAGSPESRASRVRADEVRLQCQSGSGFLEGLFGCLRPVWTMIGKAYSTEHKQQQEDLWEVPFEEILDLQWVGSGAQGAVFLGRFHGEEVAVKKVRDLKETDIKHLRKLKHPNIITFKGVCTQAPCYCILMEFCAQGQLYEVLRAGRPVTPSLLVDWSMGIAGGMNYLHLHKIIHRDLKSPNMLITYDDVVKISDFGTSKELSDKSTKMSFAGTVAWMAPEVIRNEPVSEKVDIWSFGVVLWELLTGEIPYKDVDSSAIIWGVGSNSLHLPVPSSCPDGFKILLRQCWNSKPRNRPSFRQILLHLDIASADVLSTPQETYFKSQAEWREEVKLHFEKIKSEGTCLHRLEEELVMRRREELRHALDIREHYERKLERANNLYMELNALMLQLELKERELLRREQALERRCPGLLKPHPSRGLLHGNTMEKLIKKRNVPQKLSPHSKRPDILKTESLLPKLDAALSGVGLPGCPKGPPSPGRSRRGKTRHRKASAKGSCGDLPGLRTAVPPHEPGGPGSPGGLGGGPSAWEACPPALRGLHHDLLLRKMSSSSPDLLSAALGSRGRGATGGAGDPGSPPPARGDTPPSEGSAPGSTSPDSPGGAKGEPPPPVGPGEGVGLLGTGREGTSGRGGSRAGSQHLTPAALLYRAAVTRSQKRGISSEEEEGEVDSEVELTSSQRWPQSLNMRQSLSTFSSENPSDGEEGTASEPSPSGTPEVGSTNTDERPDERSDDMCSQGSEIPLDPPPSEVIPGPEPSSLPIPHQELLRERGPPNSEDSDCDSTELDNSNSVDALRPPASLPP

Structure (SMILES): Nc1ncc(-c2cn(C34CC(N5CCC(F)(F)CC5)(C3)C4)c([C@H](O)C(F)(F)F)n2)cc1OC(F)(F)F (single isomer, unassigned) [Example 9b]
- Kp ([1]; male, C57BL/6, mouse, brain and plasma, po, 10 mg/kg, male C57BL/6 mice, oral dose 10 mg/kg, based on AUC, read-out: Brain/Plasma Ratio): 0.7
- unbound brain-to-plasma ratio (Kp,uu) ([1]; male, C57BL/6, mouse, brain and plasma, po, 10 mg/kg, male C57BL/6 mice, oral dose 10 mg/kg, based on AUC, read-out: Free Brain/Plasma Ratio): 0.31
- clearance [1, 10]: 3.9 mL/min/kg
- half-life [1, 10]: 15.9 h
- Vd ([1]; mouse, in vivo, male C57BL/6 mice, IV dose 0.3 mg/kg (1a, 4b, 13, 14b, 16; IV dose of 8a, 9b not stated), read-out: Vss): 4.8 L/kg
- AUC(0-t) [1, 11]: 39.6 µM·h
- Cmax [1, 11]: 2310 nM
- bioavailability [1, 11]: 70.5%
- clearance in mice, comparison in words [1, 12]: reduced clearance
- half-life in mice, comparison in words [1, 12]: longer half-life
- Kd [2]: 1 nM
- microsomal stability, comparison in words [3]: improvements to microsomal stability
- half-life [4]: 331 min
- half-life [5]: 581 min
- half-life [6]: 297 min
- half-life [7]: 240 min
- clearance [8, 13]: 2.8 mL/min/kg
- half-life [8, 13]: 22.7 h
- Vd ([8]; rat, in vivo, Wistar Han rats, IV dose 1 mg/kg, read-out: Vss): 4.7 L/kg
- AUC(0-t) [8, 14]: 19.2 µM·h
- Cmax [8, 14]: 1050 nM
- bioavailability [8, 14]: 95.9%
- clearance in rats, comparison in words [8, 15]: reduced clearance
- half-life in rats, comparison in words [8, 15]: longer half-life
- half-life [9]: 240 min
